Reference: ChEMBL document CHEMBL5338788, “Discovery of a New-Generation S-Adenosylmethionine-Noncompetitive Covalent Inhibitor Targeting the Lysine Methyltransferase Enhancer of Zeste Homologue 2” (J Med Chem, 2023)
Active and inactive are the calls of the source. No cut-off for these calls is given here.

Legend:
KARPAS-422 [1] = assay: Downregulation of H2K27me3 level in human KARPAS-422 cells incubated for 48 to 96 hrs by Western blot analysis; assay type: functional, cell-based; conditions: dose 0.05-1 µM, time 48-96 hrs
KARPAS-422 [2] = assay: Downregulation of H2K27me3 level in human KARPAS-422 cells at 0.05 to 1 uM by Western blot analysis; assay type: functional, cell-based; conditions: dose 0.05-1 µM, time 48-96 hrs, TDE = time-dependent effect
KARPAS-422 [3] = assay: Antiproliferative activity against human KARPAS-422 cells expressing EZH2 Y641N mutant assessed as inhibition of cell proliferation incubated for 6 days by CCK8 assay; assay type: functional, cell-based; conditions: KARPAS-422, 144 h
Pfeiffer [4] = assay: Antiproliferative activity against human Pfeiffer cells expressing EZH2 […] mutant assessed as inhibition of cell proliferation incubated for 6 days by CCK8 assay; assay type: functional, cell-based; conditions: 144 h
[5] = Metabolic stability in human liver microsomes assessed as half life preincubated for 10 mins followed by NADPH addition measured upto 60 mins by LC-MS/MS analysis; assay type: ADME, Microsome; conditions: time < 70 min
[6] = Apparent permeability in human Caco-2 cells at 20 uM measured for 35 to 95 mins by LC-MS/MS analysis; assay type: ADME, cell-based; conditions: time 35-95 min
Pfeiffer [7] = assay: Downregulation of H2K27me3 level in human Pfeiffer cells incubated for 48 to 96 hrs by Western blot analysis; assay type: functional, cell-based; conditions: dose 0.05-1 µM, time 48-96 hrs
Pfeiffer [8] = assay: Downregulation of H2K27me3 level in human Pfeiffer cells at 0.05 to 1 uM by Western blot analysis; assay type: functional, cell-based; conditions: dose 0.05-1 µM, time 48-96 hrs, TDE = time-dependent effect
Pfeiffer [9] = assay: Effect on total H3 level in human Pfeiffer cells at 0.05 to 1 uM incubated for 48 to 96 hrs by Western blot analysis; assay type: functional, cell-based; conditions: dose 0.05-1 µM, time 48-96 hrs
Pfeiffer [10] = assay: Effect on EZH2 level in human Pfeiffer cells at 0.05 to 1 uM incubated for 48 to 96 hrs by Western blot analysis; assay type: functional, cell-based; conditions: dose 0.05-1 µM, time 48-96 hrs
Pfeiffer [11] = assay: Downregulation of H3K27me3 level in human Pfeiffer cells at 1 uM incubated for 96 hrs followed by compound washout measured after 120 hrs by Western blot analysis; assay type: functional, cell-based; conditions: time 216.0 hrs
[12] = Antiproliferative activity against human WILL-1 cells expressing wild-type EZH2 assessed as inhibition of cell proliferation incubated for 6 days by CCK8 assay; assay type: functional, cell-based; conditions: WILL-1, 144 h
[13] = biological target: T1, Protein arginine N-methyltransferase 1 (Homo sapiens, UniProt Q99873); assay: Inhibition of PRMT1 (unknown origin) using histone peptide/SAM as substrate by AlphaLisa assay
[14] = biological target: Histone-arginine methyltransferase CARM1 (Homo sapiens, UniProt Q86X55); assay: Inhibition of PRMT4 (unknown origin) using histone peptide/SAM as substrate by AlphaLisa assay
[15] = biological target: T2, Protein arginine N-methyltransferase 5 (Homo sapiens, UniProt O14744); assay: Inhibition of PRMT5 (unknown origin) using histone peptide/SAM as substrate by AlphaLisa assay
[16] = biological target: T3, Histone-lysine N-methyltransferase, H3 lysine-36 specific (Homo sapiens, UniProt Q96L73); assay: Inhibition of NSD1 (unknown origin) using histone peptide/SAM as substrate by AlphaLisa assay
[17] = biological target: Histone-lysine N-methyltransferase NSD2 (Homo sapiens, UniProt O96028); assay: Inhibition of NSD2 (unknown origin) using histone peptide/SAM as substrate by AlphaLisa assay
[18] = biological target: T4, Histone-lysine N-methyltransferase 2A (Homo sapiens, UniProt Q03164); assay: Inhibition of MLL1 (unknown origin) using histone peptide/SAM as substrate by HTRF assay
[19] = biological target: T5, Histone-lysine N-methyltransferase 2B (Homo sapiens, UniProt Q9UMN6); assay: Inhibition of MLL4 (unknown origin) using histone peptide/SAM as substrate by HTRF assay
[20] = biological target: Histone-lysine N-methyltransferase EHMT2 (Homo sapiens, UniProt Q96KQ7); assay: Inhibition of G9a (unknown origin) using histone peptide/SAM as substrate by AlphaLisa assay
[21] = biological target: Histone-lysine N-methyltransferase EHMT1 (Homo sapiens, UniProt Q9H9B1); assay: Inhibition of GLP (unknown origin) using histone peptide/SAM as substrate by AlphaLisa assay
[22] = biological target: T6, DNA (cytosine-5)-methyltransferase 1 (Homo sapiens, UniProt P26358); assay: Inhibition of DNMT1 (unknown origin) using histone peptide/SAM as substrate by AlphaLisa assay
[23] = biological target: T1, Protein arginine N-methyltransferase 1; assay: Inhibition of PRMT1 (unknown origin) using histone peptide/SAM as substrate at 10 uM by AlphaLisa assay
[24] = biological target: Histone-arginine methyltransferase CARM1 (Homo sapiens) (UniProt Q86X55); assay: Inhibition of PRMT4 (unknown origin) using histone peptide/SAM as substrate at 10 uM by AlphaLisa assay
[25] = biological target: T2, Protein arginine N-methyltransferase 5; assay: Inhibition of PRMT5 (unknown origin) using histone peptide/SAM as substrate at 10 uM by AlphaLisa assay
[26] = biological target: T3, Histone-lysine N-methyltransferase, H3 lysine-36 specific; assay: Inhibition of NSD1 (unknown origin) using histone peptide/SAM as substrate at 10 uM by AlphaLisa assay
[27] = biological target: Histone-lysine N-methyltransferase NSD2 (Homo sapiens) (UniProt O96028); assay: Inhibition of NSD2 (unknown origin) using histone peptide/SAM as substrate at 10 uM by AlphaLisa assay
[28] = biological target: T4, Histone-lysine N-methyltransferase 2A; assay: Inhibition of MLL1 (unknown origin) using histone peptide/SAM as substrate at 10 uM by HTRF assay
[29] = biological target: T5, Histone-lysine N-methyltransferase 2B; assay: Inhibition of MLL4 (unknown origin) using histone peptide/SAM as substrate at 10 uM by HTRF assay
[30] = biological target: Histone-lysine N-methyltransferase EHMT2 (Homo sapiens) (UniProt Q96KQ7); assay: Inhibition of G9a (unknown origin) using histone peptide/SAM as substrate at 10 uM by AlphaLisa assay
[31] = biological target: Histone-lysine N-methyltransferase EHMT1 (Homo sapiens) (UniProt Q9H9B1); assay: Inhibition of GLP (unknown origin) using histone peptide/SAM as substrate at 10 uM by AlphaLisa assay
[32] = biological target: T6, DNA (cytosine-5)-methyltransferase 1; assay: Inhibition of DNMT1 (unknown origin) using histone peptide/SAM as substrate at 10 uM by AlphaLisa assay
Pfeiffer [33] = assay: Antiproliferative activity against human Pfeiffer cells expressing EZH2 mutant assessed as inhibition of cell proliferation incubated for 6 days by CCK8 assay; assay type: functional, cell-based; conditions: time 6.0 day
KARPAS-422 [34] = assay: Antiproliferative activity against human KARPAS-422 cells expressing EZH2 mutant assessed as inhibition of cell proliferation incubated for 6 days by CCK8 assay; assay type: functional, cell-based; conditions: time 6.0 day
RL = assay: Antiproliferative activity against human RL cells expressing EZH2 mutant assessed as inhibition of cell proliferation incubated for 6 days by CCK8 assay; assay type: functional, cell-based; conditions: time 6.0 day
SU-DHL-2 = assay: Antiproliferative activity against human SUDHL2 cells expressing EZH2 mutant assessed as inhibition of cell proliferation incubated for 6 days by CCK8 assay; assay type: functional, cell-based; conditions: SU-DHL-2, 144 h
SU-DHL10 = assay: Antiproliferative activity against human SU-DHL-10 cells expressing EZH2 mutant assessed as inhibition of cell proliferation incubated for 6 days by CCK8 assay; assay type: functional, cell-based; conditions: time 6.0 day
Karpas-1106P = assay: Antiproliferative activity against human KARPAS-1106P cells expressing wild-type EZH2 assessed as inhibition of cell proliferation incubated for 6 days by CCK8 assay; assay type: functional, cell-based; conditions: time 6.0 day
DB = assay: Antiproliferative activity against human DB cells expressing wild-type EZH2 assessed as inhibition of cell proliferation incubated for 6 days by CCK8 assay; assay type: functional, cell-based; conditions: 144 h
WSUDLCL2 = assay: Antiproliferative activity against human WSUDLCL2 cells expressing wild-type EZH2 assessed as inhibition of cell proliferation incubated for 6 days by CCK8 assay; assay type: functional, cell-based; conditions: WSUDLCL2, 144 h
U2932 = assay: Antiproliferative activity against human U2932 cells expressing wild-type EZH2 assessed as inhibition of cell proliferation incubated for 6 days by CCK8 assay; assay type: functional, cell-based; conditions: U2932, 144 h
HT = assay: Antiproliferative activity against human HT cells expressing wild-type EZH2 assessed as inhibition of cell proliferation incubated for 6 days by CCK8 assay; assay type: functional, cell-based; conditions: time 6.0 day
OPM-2 = assay: Antiproliferative activity against human OPM-2 cells expressing wild-type EZH2 assessed as inhibition of cell proliferation incubated for 6 days by CCK8 assay; assay type: functional, cell-based; conditions: OPM-2, 144 h
[35] = Half life in Sprague-Dawley rat at 3 mg/kg, iv measured for 0.25 to 24 hrs by LC-MS/MS analysis; assay type: ADME, organism-based; conditions: in vivo, time 0.25-24 hrs
[36] = AUC (0 to last) in Sprague-Dawley rat at 3 mg/kg, iv measured for 0.25 to 24 hrs by LC-MS/MS analysis; assay type: ADME, organism-based; parameters: time 0.25-24 hrs, dose 3 mg/kg, route iv; conditions: in vivo
[37] = Cmax in Sprague-Dawley rat at 10 mg/kg, po measured for 0.25 to 24 hrs by LC-MS/MS analysis; assay type: ADME, organism-based; parameters: time lower 0.25 hrs, dose 10 mg/kg, time upper 24 hrs, route po; conditions: in vivo
[38] = AUC (0 to last) in Sprague-Dawley rat at 10 mg/kg, po measured for 0.25 to 24 hrs by LC-MS/MS analysis; assay type: ADME, organism-based; parameters: dose 10 mg/kg, time upper 24 hrs, time lower 0.25 hrs, route po; conditions: in vivo
[39] = Bioavailability in Sprague-Dawley rat at 10 mg/kg, po measured for 0.25 to 24 hrs by LC-MS/MS analysis; assay type: ADME, organism-based; conditions: in vivo, time 0.25-24 hrs

T5 sequence (Q9UMN6 whole entry): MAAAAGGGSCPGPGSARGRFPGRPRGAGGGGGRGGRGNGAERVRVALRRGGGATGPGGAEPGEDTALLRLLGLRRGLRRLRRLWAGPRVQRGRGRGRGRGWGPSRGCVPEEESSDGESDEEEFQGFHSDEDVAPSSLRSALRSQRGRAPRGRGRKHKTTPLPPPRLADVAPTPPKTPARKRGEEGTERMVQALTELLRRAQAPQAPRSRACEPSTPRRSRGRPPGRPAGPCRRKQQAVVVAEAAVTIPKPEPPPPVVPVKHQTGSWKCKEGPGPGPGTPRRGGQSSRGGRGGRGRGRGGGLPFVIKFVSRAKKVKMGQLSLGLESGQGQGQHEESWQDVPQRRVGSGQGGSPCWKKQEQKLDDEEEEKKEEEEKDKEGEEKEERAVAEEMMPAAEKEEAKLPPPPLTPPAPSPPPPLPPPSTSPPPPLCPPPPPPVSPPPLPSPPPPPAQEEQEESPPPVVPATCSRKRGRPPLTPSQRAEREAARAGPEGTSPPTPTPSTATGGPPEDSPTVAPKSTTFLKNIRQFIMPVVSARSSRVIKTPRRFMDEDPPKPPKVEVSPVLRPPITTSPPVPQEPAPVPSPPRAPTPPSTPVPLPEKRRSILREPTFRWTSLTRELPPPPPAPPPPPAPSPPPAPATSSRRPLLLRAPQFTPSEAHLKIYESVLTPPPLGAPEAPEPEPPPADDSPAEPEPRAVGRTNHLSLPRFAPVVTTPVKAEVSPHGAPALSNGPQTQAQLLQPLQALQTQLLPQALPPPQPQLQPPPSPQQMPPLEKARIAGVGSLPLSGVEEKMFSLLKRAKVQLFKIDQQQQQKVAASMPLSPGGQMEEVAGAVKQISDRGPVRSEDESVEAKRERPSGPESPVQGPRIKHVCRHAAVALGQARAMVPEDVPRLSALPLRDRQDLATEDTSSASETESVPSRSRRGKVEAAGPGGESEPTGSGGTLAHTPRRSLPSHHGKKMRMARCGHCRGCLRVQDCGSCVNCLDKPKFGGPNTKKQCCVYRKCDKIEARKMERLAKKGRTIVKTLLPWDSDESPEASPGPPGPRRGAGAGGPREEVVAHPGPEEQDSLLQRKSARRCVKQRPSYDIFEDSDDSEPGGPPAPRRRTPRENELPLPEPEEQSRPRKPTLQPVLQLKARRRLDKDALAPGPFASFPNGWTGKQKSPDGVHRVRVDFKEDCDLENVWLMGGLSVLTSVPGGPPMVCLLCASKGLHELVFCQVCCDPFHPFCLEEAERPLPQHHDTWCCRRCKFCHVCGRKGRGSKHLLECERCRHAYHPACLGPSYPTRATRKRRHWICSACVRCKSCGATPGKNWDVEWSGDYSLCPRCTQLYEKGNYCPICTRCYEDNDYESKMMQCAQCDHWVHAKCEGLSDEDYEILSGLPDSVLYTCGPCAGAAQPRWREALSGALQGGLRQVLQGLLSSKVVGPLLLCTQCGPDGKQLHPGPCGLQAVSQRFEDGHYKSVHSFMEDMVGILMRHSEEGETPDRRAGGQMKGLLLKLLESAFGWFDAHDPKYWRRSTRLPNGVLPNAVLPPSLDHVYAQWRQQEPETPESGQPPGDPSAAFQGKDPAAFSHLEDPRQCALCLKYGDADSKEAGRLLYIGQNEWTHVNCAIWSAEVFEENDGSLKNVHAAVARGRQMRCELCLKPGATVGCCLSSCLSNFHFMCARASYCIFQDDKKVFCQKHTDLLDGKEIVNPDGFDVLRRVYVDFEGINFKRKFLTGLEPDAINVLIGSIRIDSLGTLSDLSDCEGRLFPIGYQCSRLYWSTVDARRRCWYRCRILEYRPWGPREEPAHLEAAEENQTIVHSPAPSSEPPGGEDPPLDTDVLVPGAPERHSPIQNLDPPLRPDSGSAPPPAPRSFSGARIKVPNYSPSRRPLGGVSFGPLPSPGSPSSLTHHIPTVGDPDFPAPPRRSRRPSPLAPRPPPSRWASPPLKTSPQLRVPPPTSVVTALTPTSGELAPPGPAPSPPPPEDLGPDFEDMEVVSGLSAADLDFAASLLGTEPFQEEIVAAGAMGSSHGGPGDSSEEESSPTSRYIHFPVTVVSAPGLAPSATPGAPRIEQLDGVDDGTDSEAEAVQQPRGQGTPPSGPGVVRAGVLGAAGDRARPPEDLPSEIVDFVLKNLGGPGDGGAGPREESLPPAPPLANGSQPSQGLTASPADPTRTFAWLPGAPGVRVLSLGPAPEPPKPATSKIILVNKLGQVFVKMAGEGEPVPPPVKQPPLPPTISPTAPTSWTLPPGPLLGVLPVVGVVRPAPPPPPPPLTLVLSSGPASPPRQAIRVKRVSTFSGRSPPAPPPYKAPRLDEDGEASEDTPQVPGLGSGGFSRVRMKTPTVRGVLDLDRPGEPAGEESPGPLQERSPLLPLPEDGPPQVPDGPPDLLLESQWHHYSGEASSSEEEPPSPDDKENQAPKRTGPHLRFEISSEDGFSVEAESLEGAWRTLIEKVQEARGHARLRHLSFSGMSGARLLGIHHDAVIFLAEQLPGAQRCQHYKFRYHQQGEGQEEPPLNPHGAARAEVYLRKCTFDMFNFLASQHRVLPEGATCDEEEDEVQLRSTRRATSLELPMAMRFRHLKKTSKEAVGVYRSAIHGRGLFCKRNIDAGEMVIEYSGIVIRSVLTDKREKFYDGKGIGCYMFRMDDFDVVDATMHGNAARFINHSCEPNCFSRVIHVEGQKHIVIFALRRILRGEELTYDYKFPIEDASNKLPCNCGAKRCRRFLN
T6 sequence (P26358 whole entry): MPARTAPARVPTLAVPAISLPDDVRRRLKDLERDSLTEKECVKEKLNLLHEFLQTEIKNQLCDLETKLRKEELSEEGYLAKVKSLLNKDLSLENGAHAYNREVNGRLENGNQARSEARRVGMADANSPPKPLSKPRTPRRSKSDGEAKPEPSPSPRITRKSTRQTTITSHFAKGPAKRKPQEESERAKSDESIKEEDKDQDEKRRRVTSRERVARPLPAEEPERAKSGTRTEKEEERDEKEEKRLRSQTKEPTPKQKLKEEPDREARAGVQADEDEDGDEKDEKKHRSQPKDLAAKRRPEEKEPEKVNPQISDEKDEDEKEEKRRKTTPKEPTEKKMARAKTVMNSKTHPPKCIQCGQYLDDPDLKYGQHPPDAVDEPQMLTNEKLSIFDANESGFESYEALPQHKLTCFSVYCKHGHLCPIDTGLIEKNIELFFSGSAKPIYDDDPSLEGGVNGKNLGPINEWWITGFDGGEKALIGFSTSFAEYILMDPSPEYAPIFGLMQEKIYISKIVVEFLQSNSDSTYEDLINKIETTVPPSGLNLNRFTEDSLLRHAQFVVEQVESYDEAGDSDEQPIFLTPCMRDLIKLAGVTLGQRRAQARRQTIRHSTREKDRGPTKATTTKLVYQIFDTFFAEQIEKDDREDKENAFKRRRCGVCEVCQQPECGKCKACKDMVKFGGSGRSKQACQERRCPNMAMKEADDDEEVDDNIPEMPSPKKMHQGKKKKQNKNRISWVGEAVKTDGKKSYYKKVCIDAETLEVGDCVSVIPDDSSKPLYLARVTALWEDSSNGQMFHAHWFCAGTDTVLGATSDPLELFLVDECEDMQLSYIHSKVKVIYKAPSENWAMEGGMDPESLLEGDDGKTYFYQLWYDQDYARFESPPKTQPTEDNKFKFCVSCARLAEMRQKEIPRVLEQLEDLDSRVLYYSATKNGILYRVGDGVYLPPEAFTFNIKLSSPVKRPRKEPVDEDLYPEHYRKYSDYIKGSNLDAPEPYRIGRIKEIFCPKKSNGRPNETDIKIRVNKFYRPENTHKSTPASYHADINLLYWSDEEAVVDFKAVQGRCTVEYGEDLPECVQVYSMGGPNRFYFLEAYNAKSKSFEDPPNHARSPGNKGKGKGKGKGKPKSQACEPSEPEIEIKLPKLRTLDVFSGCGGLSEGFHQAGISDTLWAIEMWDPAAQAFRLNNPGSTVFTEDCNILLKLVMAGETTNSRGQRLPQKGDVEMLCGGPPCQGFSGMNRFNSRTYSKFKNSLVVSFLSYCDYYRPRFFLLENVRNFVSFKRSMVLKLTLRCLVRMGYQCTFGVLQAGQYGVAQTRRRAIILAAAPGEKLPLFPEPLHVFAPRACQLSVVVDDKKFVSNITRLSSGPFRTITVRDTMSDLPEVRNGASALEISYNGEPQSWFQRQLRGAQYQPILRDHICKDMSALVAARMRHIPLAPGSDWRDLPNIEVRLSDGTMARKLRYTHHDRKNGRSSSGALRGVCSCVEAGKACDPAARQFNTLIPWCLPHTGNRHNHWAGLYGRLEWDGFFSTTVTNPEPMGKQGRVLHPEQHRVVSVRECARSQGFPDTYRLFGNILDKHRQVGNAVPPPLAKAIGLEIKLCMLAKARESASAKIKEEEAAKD
T2 sequence (O14744 whole entry): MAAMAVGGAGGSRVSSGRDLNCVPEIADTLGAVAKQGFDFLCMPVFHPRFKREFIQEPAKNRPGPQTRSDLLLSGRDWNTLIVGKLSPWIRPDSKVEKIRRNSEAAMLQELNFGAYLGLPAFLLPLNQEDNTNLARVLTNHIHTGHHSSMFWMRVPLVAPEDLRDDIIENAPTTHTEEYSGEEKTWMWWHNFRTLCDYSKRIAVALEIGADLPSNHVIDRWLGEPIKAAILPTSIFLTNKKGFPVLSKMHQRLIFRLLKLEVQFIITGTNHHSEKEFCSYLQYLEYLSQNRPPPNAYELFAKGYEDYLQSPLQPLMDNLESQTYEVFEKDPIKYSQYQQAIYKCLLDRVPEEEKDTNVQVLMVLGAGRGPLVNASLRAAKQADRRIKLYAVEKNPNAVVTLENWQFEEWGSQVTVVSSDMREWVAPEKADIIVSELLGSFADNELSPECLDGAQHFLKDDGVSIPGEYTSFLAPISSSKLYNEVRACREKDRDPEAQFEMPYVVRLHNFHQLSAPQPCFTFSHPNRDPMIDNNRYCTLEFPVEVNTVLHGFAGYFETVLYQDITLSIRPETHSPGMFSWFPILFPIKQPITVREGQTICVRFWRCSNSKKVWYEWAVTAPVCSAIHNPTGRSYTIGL

Compound: C=CC(=O)NCc1cc(C(=O)NCc2c(SC)cc(C)[nH]c2=O)c(C)c(N(CC)C2CCOCC2)c1
- Activity (KARPAS-422 [1]): Dose-Dependent Effect
- Activity (KARPAS-422 [2]): Tde
- IC50 (KARPAS-422 [3]): 0.064 µM
- IC50 (Pfeiffer [4]): 0.022 µM
- half-life [5]: 33.8 min
- Papp at 20 µM [6]: 0.052 ×10⁻⁶ cm/s
- Activity (Pfeiffer [7]): Dose-Dependent Effect
- Activity (Pfeiffer [8]): Tde
- Activity (Pfeiffer [9]): inactive
- Activity (Pfeiffer [10]): inactive
- Activity (Pfeiffer [11]): Active
- IC50 [12]: > 3 µM
- IC50 [13]: > 10 µM
- IC50 [14]: > 10 µM
- IC50 [15]: > 10 µM
- IC50 [16]: > 10 µM
- IC50 [17]: > 10 µM
- IC50 [18]: > 10 µM
- IC50 [19]: > 10 µM
- IC50 [20]: > 10 µM
- IC50 [21]: > 10 µM
- IC50 [22]: > 10 µM
- inhibition [23]: inactive
- inhibition [24]: inactive
- inhibition [25]: inactive
- inhibition [26]: inactive
- inhibition [27]: inactive
- inhibition [28]: inactive
- inhibition [29]: inactive
- inhibition [30]: inactive
- inhibition [31]: inactive
- inhibition [32]: inactive
- inhibition (Pfeiffer [33]): Active
- inhibition (KARPAS-422 [34]): Active
- inhibition (RL): Active
- IC50 (SU-DHL-2): > 3 µM
- inhibition (SU-DHL10): Active
- inhibition (Karpas-1106P): Active
- IC50 (DB): > 3 µM
- IC50 (WSUDLCL2): > 3 µM
- IC50 (U2932): > 3 µM
- inhibition (HT): Active
- IC50 (OPM-2): > 3 µM
- t1/2 [35]: 16.8 min
- AUC(0-t) [36]: 4890 ng·h/mL
- Cmax [37]: 29.5 ng/mL
- AUC(0-t) [38]: 8.16 ng·h/mL
- bioavailability [39]: 0.05%
